What is called LD50 is the dose at which mortality reaches 50%. Low readings indicate a more toxic substance, high ones a less toxic substance.

From patent US4301177A, “(3-Methyl-2-butenyl)propanedioic acid mono (1,2-diphenylhydrazide) and salts thereof” (Istituto de Angeli S.p.A., priority 1979, dated 1981) come the findings set out here.

Where a name gives a salt, the structure may show the parent alone. Read-outs that look alike come from different tables or passages of the source.

Series [1] deals with rats. Briefly: in vivo. As for the experimental part: (§1) In the present study the test compounds were administered perorally by means of a stomach tube as an aqueous suspension in 5% acacia gum at a constant volume of 10 ml/kg to male Swiss mice and male Sprague-Dawley rats. Control rats and mice were given a corresponding volume of the aqueous suspension medium.
(§2) The acute toxicity was determined on groups of 10 rats treated orally with 500, 1000, 1500 and 2000 mg/kg of the test compound by means of a stomach tube.

A short description of a further series: in vivo. As to conditions: rat, in vivo, po. As for the experimental part: as §1, §2
Series [2] relates to rats. Type of series: in vivo, male Sprague-Dawley rats. Particulars: 40 mg/kg oral. As for the experimental part: In the present study the test compounds were administered perorally by means of a stomach tube as an aqueous suspension in 5% acacia gum at a constant volume of 10 ml/kg to male Swiss mice and male Sprague-Dawley rats. Control rats and mice were given a corresponding volume of the aqueous suspension medium. The results were statistically evaluated by Dunnett's test (C. V. Dunnett.: J.A. Stat. Ass., 40, 1096, 1955).
1. Anti-inflammatory activity
The anti-inflammatory activity was determined in the carrageenin edema test according to Winter et al., (see C. A. Winter, E. A. Risley, G. W. Muss: J. Pharm. Exp. Ther., 141, 369, 1963).
The edema was provoked in rats by a subplantar injection into the right hind paw of 0.1 ml of a 1% carrageenin suspension in sterile saline solution.
Rats were treated orally with the test compound 60 minutes before the injection of carrageenin. The volume of the foot was measured with a mercury differential volume-meter immediately before injection of the phlogistic agent, and 3 and 5 hours thereafter. The anti-inflammatory activity was evaluated as percent edema inhibition of treated rats in comparison with the controls, according to the following formula: [formula]

Molecule `CC(C)=CCC(C(=O)O)C(=O)N(Nc1ccccc1)c1ccccc1` (centres unmarked) [A, Calcium salt of (3-methyl-2-butenyl)propanedioic acid mono(1,2-diphenylhydrazide)] gave an LD50 confidence limits in the series on rats [1] (rat, in vivo, po) of 721.30 to 1550.51 mg/kg. The “toxicity compared with prior art compound” value in the series on rats [1] (summary, Table VII) is recorded as “less toxic”. The molecule also registered an LD50 at 168 h in the series “in vivo” of 1060 mg/kg.
`CCCCC(C(=O)O)C(=O)N(Nc1ccccc1)c1ccccc1` (centres unmarked) [B, Calcium salt of butylpropanedioic acid mono(1,2-diphenylhydrazide), reference compound]: the Edema volume, mean ± standard deviation with rats [2] (3 h after carrageenin) worked out at 1.42 ± 0.27 mL; in the series on rats [2] (5 h after carrageenin), 2.06 ± 0.42 mL.
